Counter-ions that a name gives are not always drawn. Like-named read-outs stand apart in the source and are kept apart here.
Experiments:
mutant BRAF kinase = mutant BRAF kinase (Homo sapiens (Human), UniProt P15056, V600E); conditions: read-out: BRAF V600E Kd, class symbols
RAF kinases = RAF kinases (Homo sapiens (Human), UniProt P04049); conditions: read-out: RAF1 Kd, class symbols
Experimental: (§1) The liganded beads were blocked with excess biotin and washed with blocking buffer (SeaBlock (Pierce), 1% BSA, 0.05% Tween 20, 1 mM DTT) to remove unbound ligand and to reduce non-specific binding. […] Test compounds were prepared as 100× stocks in DMSO and rapidly diluted into the aqueous environment. DMSO was added to control assays lacking a test compound. Primary screen interactions were performed in polypropylene 384-well plates in a final volume of 34 μL, while Kd determinations were performed in polystyrene 96-well plates in a final volume of 135 μL. […] The kinase concentration in the eluates was measured by quantitative PCR. Each kinase was tested individually against each compound. KdS were determined using eleven serial threefold dilutions. A selectivity score, which is a quantitative measure of selectivity of a compound against a panel of enzymes, may be calculated for a compound by dividing the number of enzymes for which a compound meets a set criteria, (for example, a binding constant of 100 nM or less), by the total number of enzymes tested. […] (Note, for those compounds tested in a larger kinase panel, as indicated by an asterisk (*) next to the S35 score, the divisor is 321 (i.e. the larger panel contains 321 distinct kinases, excluding mutant variants.)).

[1] = test system: panel of 290 distinct kinases (321 in the larger panel), excluding mutant variants; conditions: kinase selectivity score, class symbols
Experimental: as §1

[2] = value marked * (larger kinase panel)

Sequence of RAF kinases (P04049 whole entry): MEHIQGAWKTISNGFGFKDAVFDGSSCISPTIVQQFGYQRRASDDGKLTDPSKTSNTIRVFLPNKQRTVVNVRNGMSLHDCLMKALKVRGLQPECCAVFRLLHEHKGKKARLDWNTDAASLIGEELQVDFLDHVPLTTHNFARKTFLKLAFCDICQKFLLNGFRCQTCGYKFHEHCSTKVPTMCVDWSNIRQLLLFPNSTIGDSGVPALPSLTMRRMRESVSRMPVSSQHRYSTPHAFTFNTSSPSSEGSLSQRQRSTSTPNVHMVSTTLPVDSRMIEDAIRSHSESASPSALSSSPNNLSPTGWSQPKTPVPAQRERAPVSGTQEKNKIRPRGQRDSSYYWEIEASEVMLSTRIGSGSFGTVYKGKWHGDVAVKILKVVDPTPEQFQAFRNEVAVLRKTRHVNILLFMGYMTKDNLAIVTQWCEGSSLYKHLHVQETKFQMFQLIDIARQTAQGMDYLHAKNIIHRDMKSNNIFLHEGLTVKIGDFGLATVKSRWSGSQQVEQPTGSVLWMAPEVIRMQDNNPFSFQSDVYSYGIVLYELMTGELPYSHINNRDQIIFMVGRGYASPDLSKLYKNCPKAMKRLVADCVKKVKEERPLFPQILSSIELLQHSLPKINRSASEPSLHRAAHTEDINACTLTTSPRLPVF
Sequence of mutant BRAF kinase (P15056 whole entry V600E): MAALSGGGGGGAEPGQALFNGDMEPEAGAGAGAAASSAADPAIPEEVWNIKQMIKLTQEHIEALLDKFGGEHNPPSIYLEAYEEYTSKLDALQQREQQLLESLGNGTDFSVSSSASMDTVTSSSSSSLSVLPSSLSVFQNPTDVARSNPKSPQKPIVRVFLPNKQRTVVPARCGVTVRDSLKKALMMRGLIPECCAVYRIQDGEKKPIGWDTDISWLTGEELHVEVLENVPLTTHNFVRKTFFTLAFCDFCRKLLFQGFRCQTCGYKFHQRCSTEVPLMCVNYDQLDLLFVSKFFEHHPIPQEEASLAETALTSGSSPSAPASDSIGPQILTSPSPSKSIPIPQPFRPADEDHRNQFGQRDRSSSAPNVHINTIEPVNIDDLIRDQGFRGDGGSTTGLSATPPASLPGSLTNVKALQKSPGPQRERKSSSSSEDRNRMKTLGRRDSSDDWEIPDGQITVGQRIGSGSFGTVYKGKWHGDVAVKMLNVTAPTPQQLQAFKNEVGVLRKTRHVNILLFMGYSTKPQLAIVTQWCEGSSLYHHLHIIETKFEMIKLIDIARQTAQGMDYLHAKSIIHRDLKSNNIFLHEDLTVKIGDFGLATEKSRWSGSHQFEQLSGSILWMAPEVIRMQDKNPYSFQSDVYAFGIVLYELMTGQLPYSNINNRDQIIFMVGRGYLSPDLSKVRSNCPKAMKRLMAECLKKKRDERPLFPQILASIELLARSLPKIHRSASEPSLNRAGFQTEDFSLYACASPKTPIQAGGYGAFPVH

Row | Compound | Kd (mutant BRAF kinase) [nM] | Kd (RAF kinases) [nM] | S35 ([1]; 290 distinct kinases) | S35 [1, 2]
1 | COc1cc2ncnc(Oc3cccc(NC(=O)Nc4cc(C(C)(C)C)on4)c3)c2cc1O[C@H]1CCN(CC(F)F)C1 [Ex 110, (S)-1-(5-tert-butylisoxazol-3-yl)-3-(3-(6-(1-(2,2-difluoroethyl)pyrrolidin-3-yloxy)-7-methoxyquinazolin-4-yloxy)phenyl)urea] | < 250 | < 250 | C (0.20 < C ≦ 0.40) | 
2 | COc1cc2ncnc(Oc3cccc(NC(=O)Nc4cc(C(C)(CF)CF)on4)c3)c2cc1OC [Ex 162, 1-[5-(1,3-difluoro-2-methylpropan-2-yl)isoxazol-3-yl]-3-[3-(6,7-dimethoxyquinazolin-4-yloxy)phenyl]urea] | < 250 | < 250 |  | C* (0.20 < C ≦ 0.40)
3 | COc1cc2ncnc(Sc3cccc(NC(=O)Nc4cc(C(C)(CF)CF)on4)c3)c2cc1OC [Ex 191, 1-[5-(1,3-difluoro-2-methylpropan-2-yl)isoxazol-3-yl]-3-[3-(6,7-dimethoxyquinazolin-4-ylthio)phenyl]urea] | < 250 | < 250 |  | C* (0.20 < C ≦ 0.40)
4 | COc1cc2ncnc(Oc3cccc(NC(=O)Nc4cccc(C(C)C)c4)c3)c2cc1OC [Ex 144, 1-(3-(6,7-dimethoxyquinazolin-4-yloxy)phenyl)-3-(3-isopropylphenyl)urea] | < 250 | < 250 |  | C* (0.20 < C ≦ 0.40)
5 | COc1cc2ncnc(Oc3cccc(NC(=O)Nc4ccc(OC(F)(F)F)cc4)c3)c2cc1OC [Ex 177, 1-(3-(6,7-dimethoxyquinazolin-4-yloxy)phenyl)-3-(4-(trifluoromethoxy)phenyl)urea] | < 250 | < 250 | C (0.20 < C ≦ 0.40) | 
6 | COc1cc2ncnc(Oc3cccc(NC(=O)Nc4cc(-c5ccccc5)on4)c3)c2cc1OC [Ex 113, 1-(3-(6,7-dimethoxyquinazolin-4-yloxy)phenyl)-3-(5-phenylisoxazol-3-yl)urea] |  | < 250 | B (0.10 < B ≦ 0.20) | 
7 | COc1cc2c(Oc3cccc(NC(=O)Nc4cc(C(C)(C)C)on4)c3)ncnc2cc1OCCN1CCC(CO)CC1 [Ex 37, 1-(5-tert-butyl-isoxazol-3-yl)-3-(3-{7-[2-(4-hydroxymethyl-piperidin-1-yl)-ethoxy]-6-methoxy-quinazolin-4-yloxy}-phenyl)-urea] | < 250 |  | C (0.20 < C ≦ 0.40) | 
8 | COc1cc2ncnc(Sc3cccc(NC(=O)Nc4cc(C(C)(C)C)on4)c3)c2cc1OCCCN1CCC(CO)CC1 [Ex 58, 1-(5-tert-butylisoxazol-3-yl)-3-(3-(6-(3-(4-(hydroxymethyl)piperidin-1-yl)propoxy)-7-methoxyquinazolin-4-ylthio)phenyl)urea] | < 250 |  | D (D > 0.40) | 
9 | COCCOc1cc2ncnc(Oc3cccc(NC(=O)Nc4cc(C(C)(C)C)on4)c3)c2cc1OCCOC [Ex 12, 1-{3-[6,7-bis(2-methoxyethoxy)quinazolin-4-yloxy]phenyl}-3-(5-tert-butylisoxazol-3-yl)urea hydrochloride] | < 250 |  | C (0.20 < C ≦ 0.40) | 
10 | COc1cc2ncnc(Oc3cccc(NC(=O)Nc4cc(C(C)(C)C)on4)c3)c2cc1OCCCN1CCCCC1 [Ex 23, 1-(5-tert-butylisoxazol-3-yl)-3-(3-(7-methoxy-6-(3-(piperidin-1-yl)propoxy)quinazolin-4-yloxy)phenyl)urea] | < 250 |  | D (D > 0.40) | 
11 | COc1cc2ncnc(Oc3cccc(NC(=O)Nc4cc(C(C)(C)C)on4)c3)c2cc1OCCN1CCC(CO)CC1 [Ex 17, 1-(5-tert-butylisoxazol-3-yl)-3-(3-(6-(2-(4-(hydroxymethyl)piperidin-1-yl)ethoxy)-7-methoxyquinazolin-4-yloxy)phenyl)urea] | < 250 |  | C (0.20 < C ≦ 0.40) | 
12 | COc1cccc(NC(=O)Nc2cccc(Oc3ncnc4cc(OC)c(OC)cc34)c2)c1 [Ex 178, 1-(3-(6,7-dimethoxyquinazolin-4-yloxy)phenyl)-3-(3-methoxyphenyl)urea] | < 250 |  |  | B* (0.10 < B ≦ 0.20)
13 | CC(C)(C)c1cc(NC(=O)Nc2cccc(Oc3ncnc4cc5c(cc34)OCCO5)c2)no1 [Ex 14, 1-(5-tert-butylisoxazol-3-yl)-3-[3-(7,8-dihydro-[1,4]dioxino[2,3-g]quinazolin-4-yloxy)phenyl]urea hydrochloride] | < 250 |  | C (0.20 < C ≦ 0.40) | 
14 | COc1cc2c(Oc3cccc(NC(=O)Nc4cc(C(C)(C)C)on4)c3)ncnc2cc1OCCCN1CCC(CO)CC1 [Ex 29] | < 250 |  | D (D > 0.40) | 
15 | COc1cc2c(Sc3cccc(NC(=O)Nc4cc(C(C)(C)C)on4)c3)ncnc2cc1OCCN1CCN(C)CC1 [Ex 83, 1-(5-tert-butylisoxazol-3-yl)-3-(3-(6-methoxy-7-(2-(4-methylpiperazin-1-yl)ethoxy)quinazolin-4-ylthio)phenyl)urea] | < 250 |  | C (0.20 < C ≦ 0.40) | 
16 | COc1cc2c(Oc3cccc(NC(=O)Nc4cc(C(C)(C)C)on4)c3)ncnc2cc1OCCN1CCN(C)CC1 [Ex 36, 1-(5-tert-butylisoxazol-3-yl)-3-(3-(6-methoxy-7-(2-(4-methylpiperazin-1-yl)ethoxy)quinazolin-4-yloxy)phenyl)urea] | < 250 |  | C (0.20 < C ≦ 0.40) | 
17 | COc1cc2c(Oc3cccc(NC(=O)Nc4cc(C(C)(C)C)on4)c3)ncnc2cc1OCCN1CCOCC1 [Ex 35, 1-(5-tert-butylisoxazol-3-yl)-3-(3-(6-methoxy-7-(2-morpholinoethoxy)quinazolin-4-yloxy)phenyl)urea] | < 250 |  | C (0.20 < C ≦ 0.40) | 
18 | COc1cc2ncnc(Oc3cccc(NC(=O)Nc4cc(C(C)(C)C)on4)c3)c2cc1OCCN1CCS(=O)(=O)CC1 [Ex 91, 1-(5-tert-butyl-isoxazol-3-yl)-3-(3-{6-[2-(1,1-dioxo-thiomorpholin-4-yl)-ethoxy]-7-methoxy-quinazolin-4-yloxy}-phenyl)-urea] | < 250 |  | C (0.20 < C ≦ 0.40) | 
19 | COc1cc2c(Oc3cccc(NC(=O)Nc4cc(C(C)(C)C)on4)c3)ncnc2cc1OCCCN1CC[C@H](O)C1 [Ex 33, (S)-1-(5-tert-butylisoxazol-3-yl)-3-(3-(7-(3-(3-hydroxypyrrolidin-1-yl)propoxy)-6-methoxyquinazolin-4-yloxy)phenyl)urea] | < 250 |  |  | D* (D > 0.40)
20 | COc1cc2ncnc(Oc3cccc(NC(=O)Nc4cc(C(C)(C)C)on4)c3)c2cc1OCCN1CCN(CCO)CC1 [Ex 19, 1-(5-tert-butylisoxazol-3-yl)-3-(3-(6-(2-(4-(2-hydroxyethyl)piperazin-1-yl)ethoxy)-7-methoxyquinazolin-4-yloxy)phenyl)urea] | < 250 |  | D (D > 0.40) | 
21 | COc1cc2ncnc(Sc3cccc(NC(=O)Nc4cc(C(C)(C)C)on4)c3)c2cc1OCCN1CCN(S(C)(=O)=O)CC1 [Ex 69, 1-(5-tert-butylisoxazol-3-yl)-3-(3-(7-methoxy-6-(2-(4-(methylsulfonyl)piperazin-1-yl)ethoxy)quinazolin-4-ylthio)phenyl)urea] | < 250 |  | C (0.20 < C ≦ 0.40) | 
22 | COCCOc1cc(NC(=O)Nc2cccc(Sc3ncnc4cc(OC)c(OC)cc34)c2)cc(C(F)(F)F)c1 [Ex 200, 1-(3-(6,7-dimethoxyquinazolin-4-ylthio)phenyl)-3-(3-(2-methoxyethoxy)-5-(trifluoromethyl)phenyl)urea] |  | > 1000 | C (0.20 < C ≦ 0.40) | 
23 | COc1cc2ncnc(Sc3cccc(NC(=O)Nc4cc(C(C)(C)C)on4)c3)c2cc1OCCCN1CCN(C)CC1 [Ex 59, 1-(5-tert-butylisoxazol-3-yl)-3-(3-(7-methoxy-6-(3-(4-methylpiperazin-1-yl)propoxy)quinazolin-4-ylthio)phenyl)urea] | < 250 |  | D (D > 0.40) | 
24 | COCCOc1cc2c(Sc3cccc(NC(=O)Nc4cc(C(C)(C)C)on4)c3)ncnc2cc1OC [Ex 45, 1-(5-tert-butylisoxazol-3-yl)-3-(3-(7-methoxy-6-(2-methoxyethoxy)quinazolin-4-ylthio)phenyl)urea] | < 250 |  | C (0.20 < C ≦ 0.40) | 
25 | COCCOc1cc2ncnc(Oc3cccc(NC(=O)Nc4cccc(C(C)(C)C)c4)c3)c2cc1OC [Ex 119, 1-(3-tert-butylphenyl)-3-(3-(6-methoxy-7-(2-methoxyethoxy)quinazolin-4-yloxy)phenyl)urea] | < 250 |  |  | C* (0.20 < C ≦ 0.40)
26 | COc1cc2ncnc(Oc3cccc(NC(=O)Nc4cc(C(C)(C)C)on4)c3)c2cc1OCCCN1CCN(C)CC1 [Ex 21, 1-(5-tert-butylisoxazol-3-yl)-3-(3-(7-methoxy-6-(3-(4-methylpiperazin-1-yl)propoxy)quinazolin-4-yloxy)phenyl)urea] | < 250 |  | D (D > 0.40) | 
27 | COc1cc2c(Oc3cccc(NC(=O)Nc4cc(C(C)(C)C)on4)c3)ncnc2cc1OCCCN1CCC(O)C1 (centres unmarked) [Ex 31, 1-(5-tert-butyl-isoxazol-3-yl)-3-(3-{7-[3-(3-hydroxy-pyrrolidin-1-yl)-propoxy]-6-methoxy-quinazolin-4-yloxy}-phenyl)-urea] | < 250 |  | D (D > 0.40) | 
28 | COc1cc2ncnc(Oc3cccc(NC(=O)Nc4cc(C(C)(C)C)on4)c3)c2cc1OCCN1CCOCC1 [Ex 20, 1-(5-tert-butylisoxazol-3-yl)-3-(3-(7-methoxy-6-(2-morpholinoethoxy)quinazolin-4-yloxy)phenyl)urea] | < 250 |  | C (0.20 < C ≦ 0.40) | 
29 | COCCOc1cc2ncnc(Sc3cccc(NC(=O)Nc4cc(C(C)(C)C)on4)c3)c2cc1OCCOC [Ex 53, 1-{3-[6,7-bis(2-methoxyethoxy)quinazolin-4-ylthio]phenyl}-3-(5-tert-butylisoxazol-3-yl)urea hydrochloride] | < 250 |  | C (0.20 < C ≦ 0.40) | 
30 | COCCOc1cc2ncnc(Oc3cccc(NC(=O)Nc4cc(C(C)(C)C)on4)c3)c2cc1OC [Ex 7, 1-(5-tert-Butylisoxazol-3-yl)-3-{3-[6-methoxy-7-(2-methoxyethoxy)quinazolin-4-yloxy]phenyl}urea hydrochloride] | < 250 |  | D (D > 0.40) | 

— patent US9730937B2, “RAF kinase modulator compounds and methods of use thereof” (AMBIT BIOSCIENCES CORPORATION, priority 2008, dated 2017)
